Source: patent publication US20080114020A1, “Difluoro-Substituted Imidazopyridines” (Altana Pharma AG, priority 2004, published 2008)

System: pentagastrin-stimulated acid secretion of the perfused rat stomach
Details: anesthetized CD rat, female; dose 1 μmol/kg i.d. (intraduodenal); pentagastrin 1 μg/kg i.v. infusion
Protocol: The abdomen of anesthetized rats (CD rat, female, 200-250 g; 1.5 g/kg i.m. urethane) was opened after tracheotomy by a median upper abdominal incision and a PVC catheter was fixed transorally in the esophagus and another via the pylorus such that the ends of the tubes just projected into the gastric lumen. The catheter leading from the pylorus led outward into the right abdominal wall through a side opening.
After thorough rinsing (about 50-100 ml), warm (37° C.) physiological NaCl solution was continuously passed through the stomach (0.5 ml/min, pH 6.8-6.9; Braun-Unita I). The pH (pH meter 632, glass electrode EA 147; φ=5 mm, Metrohm) and, by titration with a freshly prepared 0.01 N NaOH solution to pH 7 (Dosimat 665 Metrohm), the secreted HCl were determined in the effluent in each case collected at an interval of 15 minutes.
The gastric secretion was stimulated by continuous infusion of […] (=1.65 ml/h) of i.v. pentagastrin (left femoral vein) about 30 min after the end of the operation (i.e. after determination of 2 preliminary fractions). The substances to be tested were administered intraduodenally in a 2.5 ml/kg liquid volume 60 min after the start of the continuous pentagastrin infusion. The body temperature of the animals was kept at a constant 37.8-38° C. by infrared irradiation and heat pads (automatic, stepless control by means of a rectal temperature sensor).

SMILES	Inhibition of acid secretion (%)
COC(=O)O[C@@H]1[C@@H](c2ccccc2)Oc2c(ccn3c(C)c(C)nc23)C1(F)F [Example 10, (8R,9R)-7,7-Difluoro-2,3-dimethyl-8-(methoxy-carbonyloxy)-9-phenyl-7H-8,9-dihydro-pyrano[2,3-c]imidazo[1,2-a]pyridine]	>85
CC(=O)OC1C(c2ccccc2)c2ccn3c(C)c(C)nc3c2OC1(F)F [Example 2, (8R,9R)-8-Acetoxy-7,7-difluoro-2,3-dimethyl-9-phenyl-7H-8,9-dihydro-pyrano[2,3-c]imidazo[1,2-a]pyridine]	>85
Cc1nc2c3c(ccn2c1C)C(c1ccccc1)C(O)C(F)(F)O3 [Example 1, (8R,9R)-7,7-Difluoro-2,3-dimethyl-8-hydroxy-9-phenyl-7H-8,9-dihydro-pyrano[2,3-c]imidazo[1,2-a]pyridine]	>85
COCC(=O)O[C@@H]1[C@@H](c2ccccc2)Oc2c(ccn3c(C)c(C)nc23)C1(F)F [Example 8, (8R,9R)-7,7-Difluoro-2,3-dimethyl-8-(2-methoxy-acetyloxy)-9-phenyl-7H-8,9-dihydro-pyrano[2,3-c]imidazo[1,2-a]pyridine]	>85
Cc1nc2c3c(ccn2c1C)C(c1ccccc1)C(OC(=O)CN(C)C)C(F)(F)O3 [Example 9, (8R,9R)-7,7-Difluoro-2,3-dimethyl-8-(2-dimethylamino-acetyloxy)-9-phenyl-7H-8,9-dihydro-pyrano[2,3-c]imidazo[1,2-a]pyridine]	>85
